From patent publication US20240351996A1, “CDK19-SELECTIVE INHIBITORS, AND METHODS OF USE THEREOF” (CZ BIOHUB SF, LLC, priority 2022, published 2024)

Legend:
CDK19/CycC = CDK19/CycC (Homo sapiens, UniProt Q9BWU1); test: LanthaScreen europium kinase binding assay (FRET displacement), CDK19; details: for CDK19 Selectivity: CDK19/CDK8 selectivity based on IC50 values; for IC50: his-tagged CDK19/CycC 5 nM, tracer 10 nM, 3 h incubation
Protocol: (§1) FRET Displacement Assay to Measure IC50: The CDK19/CDK8 IC50 values were measured to evaluate activity and to determine CDK19/CDK8 selectivity. The IC50 values of the disclosed compounds was measured using a LanthaScreen™ europium kinase binding assay (ThermoFisher), as described herein.
To a kinase buffer cocktail solution (i.e., 5× Kinase Buffer A) was added: purified recombinant his-tagged CDK19/CycC protein (5 nM), ATP-competitive kinase inhibitor scaffold kinase tracer Alexa Fluor® 665 (10 nM), biotin anti-his tag antibody (2 nM), LanthaScreen® europium-streptavidin (2 nM). An aliquot of the cocktail solution (10 μL) was added to each well of a LUMITRAC™ 200:384 flat bottom, non-treated microtiter white plate. The plate was then covered to protect light sensitive reagents and incubated for 30 min at room temperature to equilibrate before addition of any inhibitors.
(§2) A serial dilution of the compounds was titrated into each well using an automated liquid handling Staccato integrated system at the following concentration(s) (Log10 Molar [C]): −4.5, −5.0, −5.5, −6.0, −6.5, −7.0, −7.5, −8.0 so that a complete dose-response could be calculated. A Tecan microplate reader infinite m200 instrument was then used to measure the FRET signal of each individual well using an excitation of 317/20 nm, emission europium of 620/12 nm, and emission kinase tracer of 665/12 nm after a 3 h incubation period at room temperature until steady-state kinetics were achieved.
(§3) Results were performed in duplicate and were repeated a total of 3 independent times before data was normalized to the DMSO control group and IC50 values reported.

CDK8 = CDK8 (Homo sapiens, UniProt P49336); test: LanthaScreen europium kinase binding assay (FRET displacement), CDK8
Protocol: as §1
[…] An aliquot of the cocktail solution (10 μL) was added to each well of a LUMITRAC™ 200:384 flat bottom, non-treated microtiter white plate. The plate was then covered to protect light sensitive reagents and incubated for 30 min at room temperature to equilibrate before addition of any inhibitors.
as §2, §3

CDK8, sequence (P49336 whole entry): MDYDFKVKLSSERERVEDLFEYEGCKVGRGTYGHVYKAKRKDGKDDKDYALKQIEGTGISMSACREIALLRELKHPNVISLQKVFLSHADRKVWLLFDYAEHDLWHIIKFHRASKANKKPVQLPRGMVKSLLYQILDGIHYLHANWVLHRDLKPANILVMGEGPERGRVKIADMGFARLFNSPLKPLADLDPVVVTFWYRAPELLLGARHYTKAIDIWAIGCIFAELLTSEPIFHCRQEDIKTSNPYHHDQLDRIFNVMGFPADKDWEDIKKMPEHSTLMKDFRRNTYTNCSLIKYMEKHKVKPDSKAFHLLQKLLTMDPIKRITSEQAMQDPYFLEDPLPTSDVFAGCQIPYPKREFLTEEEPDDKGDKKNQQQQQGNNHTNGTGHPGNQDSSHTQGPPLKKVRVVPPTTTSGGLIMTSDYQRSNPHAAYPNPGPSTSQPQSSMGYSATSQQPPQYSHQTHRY
CDK8, sequence (P24863 whole entry partner): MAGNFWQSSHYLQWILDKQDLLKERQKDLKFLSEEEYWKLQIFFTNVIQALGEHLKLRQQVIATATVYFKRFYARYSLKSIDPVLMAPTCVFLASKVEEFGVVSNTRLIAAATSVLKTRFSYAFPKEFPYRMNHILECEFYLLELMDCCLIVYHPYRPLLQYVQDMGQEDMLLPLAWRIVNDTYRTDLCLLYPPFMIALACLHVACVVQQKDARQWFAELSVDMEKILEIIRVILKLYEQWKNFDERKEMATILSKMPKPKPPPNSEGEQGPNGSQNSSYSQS
CDK19/CycC, sequence (Q9BWU1 whole entry): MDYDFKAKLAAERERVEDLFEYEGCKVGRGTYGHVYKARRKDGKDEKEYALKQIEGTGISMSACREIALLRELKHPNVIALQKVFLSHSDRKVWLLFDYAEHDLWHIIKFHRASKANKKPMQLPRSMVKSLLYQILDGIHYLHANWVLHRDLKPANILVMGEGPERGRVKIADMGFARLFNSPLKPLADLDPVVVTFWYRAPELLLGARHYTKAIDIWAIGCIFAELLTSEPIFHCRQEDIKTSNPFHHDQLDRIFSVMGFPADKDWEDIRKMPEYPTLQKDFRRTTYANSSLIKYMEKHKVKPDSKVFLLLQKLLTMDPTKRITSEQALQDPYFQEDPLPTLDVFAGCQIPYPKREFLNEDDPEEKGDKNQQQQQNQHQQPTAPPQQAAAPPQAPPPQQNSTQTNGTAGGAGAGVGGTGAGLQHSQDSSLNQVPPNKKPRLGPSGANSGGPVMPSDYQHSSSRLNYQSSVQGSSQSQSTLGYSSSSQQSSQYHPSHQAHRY
CDK19/CycC, sequence (P24863 whole entry partner): as the sequence (P24863 whole entry partner) above

CDK19 Selectivity (CDK19/CycC)	IC50 (CDK19/CycC) [nM]	IC50 (CDK8) [nM]	Structure (SMILES)
1.5	≤ 2.5	3	Cc1cncc(F)c1Nc1cnc(Nc2ccc(CC(C)C)cc2)nc1 [Compound A62]
3	265	797	CC(C)Cc1ccc(Nc2ncc(C(=O)c3cccnc3)cn2)cc1 [Compound A133]
≥11	≤ 2.5	27	CC(C)Cc1ccc(Nc2ncc(Nc3ccncc3F)cn2)cc1 [Compound A56]
5.3	1550	8220	CC(C)Cc1ccc(Nc2ncc(NC(=O)c3ccncc3)cn2)cc1 [Compound A48, N-(2-((4-isobutylphenyl)amino)pyrimidin-5-yl) isonicotinamide]
	10000	10000	Fc1ccc(Nc2ccc(Oc3ccncc3)cn2)cc1 [Compound A81]
1.2	4.6	5.8	Cc1cncc(C)c1Nc1cnc(Nc2ccc(CC(C)C)cc2)nc1 [Compound A66]
2.3	389	905	CCc1cnc(C)cc1Nc1cnc(Nc2ccc(CC(C)C)cc2)nc1 [Compound A64]
4	36	129	CC(C)Cc1ccc(Nc2ncc(Nc3cc(F)ncc3F)cn2)cc1 [Compound A175]
2.4	24	56	Cc1ccc2nccc(Nc3cnc(Nc4ccc(CC(C)C)cc4)nc3)c2c1 [Compound A13]
2	1340	2380	CC(C)Cc1ccc(Nc2ccc(C(=O)c3cccnc3)cn2)cc1 [Compound A200]
3.9	296	1160	O=C(c1ccncc1)c1ccc(Nc2ccc(F)cc2)nc1 [Compound A75]
0.9	38	34	Cc1cnc2ccccc2c1Nc1cnc(Nc2ccc(CC(C)C)cc2)nc1 [Compound A12]
2	41	83	c1cc(Nc2cnc(Nc3ccc4c(c3)CCCC4)nc2)ccn1 [Compound A37]
2	5	11	Cc1cc(CC(C)C)ccc1Nc1ncc(C(=O)c2ccncc2OC2CCCC2)cn1 [Compound A172]
2.4	84	198	CC(C)Cc1ccc(Nc2ncc(-c3cccnc3)cn2)cc1 [Compound A87]
	9030	9930	CC(C)Cc1cccc(Nc2ncc(Nc3cccnc3)cn2)c1 [Compound A31]
	10000	10000	Cc1cc(Nc2cnc(Nc3cccc(CC(C)C)c3)nc2)cc(C)n1 [Compound A30]
2	9	20	CC(C)Cc1ccc(Nc2ncc(C(F)(F)c3ccncc3)cn2)cc1 [Compound A161]
4	2070	8260	Cc1cc(Nc2cnc(Nc3ccc(CC(C)C)cc3)nc2)cc(C)n1 [Compound A9]
	24	16	CC(C)Cc1ccc(Nc2ncc(Nc3ccncc3-c3cnn(C4CC4)c3)cn2)cc1 [Compound A158]
5	31	160	CC(C)Cc1ccc(Nc2ccc(C(=O)c3ccncc3F)cn2)cc1 [Compound A122]
	10000	10000	COc1cc(N2CCN(C)CC2)ccc1Nc1ncc(Nc2ccncc2)cn1 [Compound A38]
3	965	2870	COc1cc(Nc2cnc(Nc3cccc(CC(C)C)c3)nc2)ccn1 [Compound A33]

CDK19 Selectivity (CDK19/CycC)	IC50 (CDK19/CycC) [nM]	IC50 (CDK8) [nM]	Structure (SMILES)
	10000	10000	CC(C)Cc1ccc(Nc2ccc(-c3ccc(C#N)cc3)cn2)cc1 [Compound A79]
3	20	62	CC(C)Cc1ccc(Nc2ncc(C3(c4ccncc4)CC3)cn2)cc1 [Compound A169]
4.6	1060	4860	Cc1cc(C#N)ccc1-c1cnc(Nc2ccc(CC(C)C)cc2)nc1 [Compound A90]
1	4810	6330	FC(F)(F)c1cc(Nc2ncc(Nc3ccncc3)cn2)cc(C(F)(F)F)c1 [Compound A44]
2	36	72	FC(F)(F)Oc1ccc(Nc2ncc(Nc3ccncc3)cn2)cc1 [Compound A145]
1	12	12	CCc1cnccc1Nc1cnc(Nc2ccc(C3CCCCC3)cc2)nc1 [Compound A68]
2	≤ 2.5	2.8	CC(C)Cc1ccc(Nc2ncc(Nc3ccncc3Cl)cn2)c(F)c1 [Compound A58]
5.1	283	1430	CC(C)Cc1ccc(Nc2ncc(-c3ccc(=O)[nH]c3)cn2)cc1 [Compound A100]
4	57	238	Cc1cnccc1Nc1cnc(Nc2ccc(CC(C)C)cc2C)nc1 [Compound A165]
3	33	95	Cc1cnccc1Nc1cnc(Nc2ccc(OC(C)C)cc2)nc1 [Compound A160]
1	5	5	Cc1nc(Nc2ccc(CC(C)C)cc2)ncc1Nc1ccncc1C(F)(F)F [Compound A166]
1	18	17	Cc1cnccc1Nc1cnc(Nc2ccc(C3CCCCC3)cc2)nc1 [Compound A148]
1	10000	10000	CC(C)Cc1ccc(Nc2ncc(-c3ccccc3)cn2)cc1 [Compound A102]
4.7	822	3840	Cc1cc(-c2cnc(Nc3ccc(CC(C)C)cc3)nc2)cc(C)n1 [Compound A101, 5-(2,6-dimethylpyridin-4-yl)-N-(4-isobutylphenyl)pyrimidin-2-amine]
1	10000	10000	Fc1ccc(Nc2ncc(Oc3ccncc3)cn2)cc1 [Compound A142]
4.8	1600	7790	CC(C)Cc1ccc(Nc2ncc(Nc3cncnc3)cn2)cc1 [Compound A63]
1.7	1640	2730	CC(C)Cc1cccc(Nc2ncc(Nc3ccncc3)cn2)c1 [Compound A28]
	10000	14000	Fc1ccc(Nc2ncc(Nc3ccncc3)cn2)cc1 [Compound A7]
4	7	33	Cc1cc(Nc2cnc(Nc3ccc(CC(C)C)cc3)nc2)c(F)cn1 [Compound A174]
3.1	99	310	CCCc1ccc(Nc2ncc(Nc3ccnc(C)c3)cn2)cc1 [Compound A10]
3	3000	10000	CC(C)Cc1ccc(Nc2ncc(Oc3ccncc3)cn2)cc1 [Compound A143]
≤1	≤ 2.5	≤ 2.5	FC(F)(F)c1cnccc1Nc1cnc(Nc2ccc(C3CCOCC3)cc2)nc1 [Compound A181]
3.5	378	1320	Cc1cnccc1Nc1cnc(Nc2cccc(CC(C)C)c2)nc1 [Compound A32]
